The text below walks through data of US20110082130A1 (LIGAND PHARMACEUTICALS, INC., priority 2006, published 2011).

A value given as a limit tells only on which side of the number the result lay.

For one test, the target named is T1, chimeric human H3 receptor (Homo sapiens, UniProt Q9Y5N1).
T1 construct: made in house; host or cells: Sf9 insect cells (baculovirus); P2 membrane preparation
T1 sequence (Q9Y5N1 with tags, fused parts or gaps): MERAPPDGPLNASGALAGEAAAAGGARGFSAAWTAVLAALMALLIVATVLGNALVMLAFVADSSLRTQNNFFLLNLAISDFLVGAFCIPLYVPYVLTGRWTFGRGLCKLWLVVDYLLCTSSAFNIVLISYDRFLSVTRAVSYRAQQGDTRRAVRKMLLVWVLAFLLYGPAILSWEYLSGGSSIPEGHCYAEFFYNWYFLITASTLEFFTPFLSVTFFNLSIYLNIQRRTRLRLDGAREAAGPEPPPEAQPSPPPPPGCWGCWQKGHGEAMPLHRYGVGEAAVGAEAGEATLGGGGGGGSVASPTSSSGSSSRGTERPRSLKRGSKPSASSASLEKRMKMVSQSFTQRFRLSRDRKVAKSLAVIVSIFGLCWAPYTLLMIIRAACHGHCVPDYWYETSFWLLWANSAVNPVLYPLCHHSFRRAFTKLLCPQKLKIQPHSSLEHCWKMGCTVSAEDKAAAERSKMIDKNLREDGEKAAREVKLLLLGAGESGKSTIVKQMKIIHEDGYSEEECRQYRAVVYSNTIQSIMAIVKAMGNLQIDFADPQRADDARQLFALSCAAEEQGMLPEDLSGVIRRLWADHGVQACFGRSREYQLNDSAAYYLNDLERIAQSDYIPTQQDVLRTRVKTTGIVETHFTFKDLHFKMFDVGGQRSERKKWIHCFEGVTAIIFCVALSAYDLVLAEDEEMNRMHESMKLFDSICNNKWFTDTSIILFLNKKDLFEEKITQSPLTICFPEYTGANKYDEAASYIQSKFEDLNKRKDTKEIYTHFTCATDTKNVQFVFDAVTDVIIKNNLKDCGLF
Nature of the test: Chimeric human H3 receptor GTP binding assay (agonist-stimulated GTP-gamma35S binding, Example 7). Format: biochemical. To be noted: Table I; P2 membranes of Sf9 cells, 1 μM histamine as agonist, Ki from IC50 by Cheng-Prusoff. The essentials:
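Sf9 membranes co-expressing chimeric human H3 receptor and heterotrimeric G-protein, 35 μg/tube, in pH 7.4 Tris buffer with 10 μM GDP. Test compounds (10^−10–10^−6 M) competed against 1 μM histamine, […] GTP-gamma35S, 60 min at room temperature. Filter-bound radioactivity counted; IC50 converted to Ki by Cheng-Prusoff. Agonism/inverse agonism tested without histamine (EC50).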
Usually Ki stands for a measure of affinity in units of concentration, obtained from inhibition or displacement. For `Cc1noc(C)c1-c1ccc2c(c1)CCN(CC(=O)N1CCN(C3CCC3)CC1)C2` [Compound 68, 2-[2-(4-cyclobutylpiperazin-1-yl)-2-oxoethyl]-6-(3,5-dimethylisoxazol-4-yl)-1,2,3,4-tetrahydroisoquinoline], the Ki is less than 1000 nM.

Turning to `COc1cc2c(cc1OC)CN(CC(=O)N1CCN(C(C)C)CC1)CC2` [Compound 49, 2-[2-(4-isopropylpiperazin-1-yl)-2-oxoethyl]-6,7-dimethoxy-1,2,3,4-tetrahydroisoquinoline], the Ki is less than 1000 nM.

For the compound `O=C(CN1CCc2ccccc2C1)N1CCN(C2CCCC2)CC1` [Compound 46, 2-[2-(4-cyclopentylpiperazin-1-yl)-2-oxoethyl]-1,2,3,4-tetrahydroisoquinoline], the Ki is less than 1000 nM.

The same test, now with this note: Table II "Ki", symbol *; assay of Example 7.
Consider `N#CCC1CCN(c2ccc3c(n2)CCN(CC(=O)N2CCN(C4CCC4)CC2)C3)CC1` [Compound 675, (1-{6-[2-(4-cyclobutylpiperazin-1-yl)-2-oxoethyl]-5,6,7,8-tetrahydro-1,6-naphthyridin-2-yl}piperidin-4-yl)acetonitrile], for which the Ki was less than 1000 nM.

Consider `CCCC(C)Nc1ccc2c(n1)CCN(CC(=O)N1CCN(C3CCC3)CC1)C2` (centres unmarked) [Compound 657, 6-[2-(4-cyclobutylpiperazin-1-yl)-2-oxoethyl]-N-(1-methylbutyl)-5,6,7,8-tetrahydro-1,6-naphthyridin-2-amine], for which the Ki was less than 1000 nM.

On to `COc1ccc(-c2ccc3c(c2)CCN(CC(=O)N2CCN(C4CCC4)CC2)C3)cc1` [Compound 520, 2-[2-(4-cyclobutylpiperazin-1-yl)-2-oxoethyl]-6-(4-methoxyphenyl)-1,2,3,4-tetrahydroisoquinoline], for which the Ki is less than 1000 nM.

As for `CN(C)c1cccc(-c2ccc3c(c2)CCN(CC(=O)N2CCN(C4CCC4)CC2)C3)c1` [Compound 536, 3-{2-[2-(4-cyclobutylpiperazin-1-yl)-2-oxoethyl]-1,2,3,4-tetrahydroisoquinolin-6-yl}-N,N-dimethylaniline], the Ki is less than 1000 nM.

As for `COc1ccc(-c2ccc3c(c2)CCN(CC(=O)N2CCN(C4CCCCC4)CC2)C3)cc1OC` [Compound 526, 2-[2-(4-cyclohexylpiperazin-1-yl)-2-oxoethyl]-6-(3,4-dimethoxyphenyl)-1,2,3,4-tetrahydroisoquinoline], the Ki is less than 1000 nM.

For `COc1ccc2cc(-c3ccc4c(c3)CCN(CC(=O)N3CCN(C5CCC5)CC3)C4)ccc2c1` [Compound 509, 2-[2-(4-cyclobutylpiperazin-1-yl)-2-oxoethyl]-6-(6-methoxy-2-naphthyl)-1,2,3,4-tetrahydroisoquinoline], the Ki was less than 1000 nM.

Regarding `O=C(CN1CCc2cc(-c3ccc(Cl)cn3)ccc2C1)N1CCN(C2CCC2)CC1` [Compound 631, 6-(5-chloropyridin-2-yl)-2-[2-(4-cyclobutylpiperazin-1-yl)-2-oxoethyl]-1,2,3,4-tetrahydroisoquinoline], the Ki is less than 1000 nM.

The test is the same for the next values; noted with them: Table II; "*" = Ki in assay of Example 7 less than 1 micromolar.
Take `CC1CCC[C@H]2CN(C(=O)CN3CCc4nc(N5CCC(F)(F)CC5)ccc4C3)CCN12` (stereo in doubt) [Compound 180, 2-(4,4-difluoropiperidin-1-yl)-6-[2-(6-methyloctahydro-2H-pyrido[1,2-a]pyrazin-2-yl)-2-oxoethyl]-5,6,7,8-tetrahydro-1,6-naphthyridine]: the Ki is less than 1000 nM.

Take `CSc1nc2c(o1)CN(CC(=O)N1CCN(C3CCC3)CC1)CC2` [Compound 107, 5-[2-(4-cyclobutylpiperazin-1-yl)-2-oxoethyl]-2-(methylthio)-4,5,6,7-tetrahydro[1.3]oxazolo [5,4-c]pyridine]: the Ki is less than 1000 nM.

Regarding `O=C(CN1CCc2cc(-c3ccc4nccn4c3)ccc2C1)N1CCN(C2CCC2)CC1` [Compound 231, 2-[2-(4-cyclobutylpiperazin-1-yl)-2-oxoethyl]-6-imidazo[1,2-a]pyridin-6-yl-1,2,3,4-tetrahydroisoquinoline], the Ki was less than 1000 nM.

Regarding `O=C(CN1CCc2nn(-c3ccc(Cl)nn3)cc2C1)N1CCN(C2CCC2)CC1` [Compound 201, 2-(6-chloropyridazin-3-yl)-5-[2-(4-cyclobutylpiperazin-1-yl)-2-oxoethyl]-4,5,6,7-tetrahydro-2H-pyrazolo[4,3-c]pyridine], the Ki was less than 1000 nM.

Turning to `COc1ccc(-c2ccc3c(n2)CCN(CC(=O)N2CCN4C(C)CCC[C@H]4C2)C3)cc1` (stereo in doubt) [Compound 178, 2-(4-methoxyphenyl)-6-[2-(6-methyloctahydro-2H-pyrido[1,2-a]pyrazin-2-yl)-2-oxoethyl]-5,6,7,8-tetrahydro-1,6-naphthyridine], the Ki is less than 1000 nM.

In the case of `O=C(CN1CCc2nn(-c3cncc(C4CC4)n3)cc2C1)N1CCN(C2CCC2)CC1` [Compound 272, 5-[2-(4-cyclobutylpiperazin-1-yl)-2-oxoethyl]-2-(6-cyclopropylpyrazin-2-yl)-4,5,6,7-tetrahydro-2H-pyrazolo[4,3-c]pyridine], the Ki is less than 1000 nM.

Regarding `O=C(CN1CCc2sc(Br)nc2C1)N1CCN(C2CCC2)CC1` [Compound 108, 2-bromo-5-[2-(4-cyclobutylpiperazin-1-yl)-2-oxoethyl]-4,5,6,7-tetrahydro[1,3] thiazolo [4,5-c]pyridine], the Ki is less than 1000 nM.

For `CC1CCC[C@H]2CN(C(=O)CN3CCc4cc(-c5cncnc5)ccc4C3)CCN12` (stereo in doubt) [Compound 149, 6-methyl-2-[(6-pyrimidin-5-yl-3,4-dihydroisoquinolin-2(1H)-yl)acetyl]octahydro-2H-pyrido[1,2-a]pyrazine], the Ki is less than 1000 nM.

Take `O=C(CN1CCc2nccnc2C1)N1CCN(C2CCC2)CC1` [Compound 228, 6-[2-(4-cyclobutylpiperazin-1-yl)-2-oxoethyl]-5,6,7,8-tetrahydropyrido[3,4-b]pyrazine]: the Ki is less than 1000 nM.

Turning to `Cn1c(-c2ccc3c(c2)CCN(CC(=O)N2CCN(C4CCC4)CC2)C3)cccc1=O` [Compound 278, 6-{2-[2-(4-cyclobutylpiperazin-1-yl)-2-oxoethyl]-1,2,3,4-tetrahydroisoquinolin-6-yl}-1-methylpyridin-2(1H)-one], the Ki is less than 1000 nM.

With `CS(=O)(=O)c1ccc(-c2nc3c(s2)CCN(CC(=O)N2CCN(C4CCC4)CC2)C3)cc1` [Compound 105, 5-[2-(4-cyclobutylpiperazin-1-yl)-2-oxoethyl]-2-[4-(methylsulfonyl)phenyl]-4,5,6,7-tetrahydro[1,3]thiazolo [4,5-c]pyridine], the Ki was less than 1000 nM.

`COc1ncc(-n2cc3c(n2)CCN(CC(=O)N2CCN(C4CCC4)CC2)C3)cn1` [Compound 256, 5-[2-(4-cyclobutylpiperazin-1-yl)-2-oxoethyl]-2-(2-methoxypyrimidin-5-yl)-4,5,6,7-tetrahydro-2H-pyrazolo[4,3-c]pyridine]: the Ki was less than 1000 nM.

For the compound `CCCn1cc(-c2ccc3c(c2)CCN(CC(=O)N2CCN(C4CCC4)CC2)C3)ccc1=O` [Compound 281, 5-{2-[2-(4-cyclobutylpiperazin-1-yl)-2-oxoethyl]-1,2,3,4-tetrahydroisoquinolin-6-yl}-1-propylpyridin-2(1H)-one], the Ki was less than 1000 nM.

`O=C(CN1CCc2ccc(-c3cncnc3)cc2CC1)N1CCN(C2CCC2)CC1` [Compound 104, 3-[2-(4-cyclobutylpiperazin-1-yl)-2-oxoethyl]-7-pyrimidin-5-yl-2,3,4,5-tetrahydro-1H-3-benzazepine]: the Ki is less than 1000 nM.

For `COc1ncc(-n2ncc3c2CCN(CC(=O)N2CCN(C4CCC4)CC2)C3)cn1` [Compound 257, 5-[2-(4-cyclobutylpiperazin-1-yl)-2-oxoethyl]-1-(2-methoxypyrimidin-5-yl)-4,5,6,7-tetrahydro-1H-pyrazolo[4,3-c]pyridine], the Ki was less than 1000 nM.

The test is the same for the next values; noted with them: assay of Example 7; "*" in Ki of Table II.
For `O=C(CN1CCc2nc(-c3ccc4c(c3)OCCO4)sc2C1)N1CCN(C2CCC2)CC1` [Compound 332], the Ki is less than 1000 nM.

With `Cc1ccc(-n2ncc3c2CN(CC(=O)N2CCN(C4CCC4)CC2)CC3)nn1` [Compound 284, 6-[2-(4-cyclobutylpiperazin-1-yl)-2-oxoethyl]-1-(6-methylpyridazin-3-yl)-4,5,6,7-tetrahydro-1H-pyrazolo[3,4-c]pyridine], the Ki was less than 1000 nM.

Take `CC(C)c1ccccc1-c1nc2c(s1)CN(CC(=O)N1CCN(C3CCC3)CC1)CC2` [Compound 362, 5-[2-(4-cyclobutylpiperazin-1-yl)-2-oxoethyl]-2-(2-isopropylphenyl)-4,5,6,7-tetrahydro[1,3]thiazolo [5,4-c]pyridine]: the Ki is less than 1000 nM.

`CCCOc1ccc(-c2nc3c(s2)CN(CC(=O)N2CCN(C4CCC4)CC2)CC3)cc1` [Compound 334, 5-[2-(4-cyclobutylpiperazin-1-yl)-2-oxoethyl]-2-(4-propoxyphenyl)-4,5,6,7-tetrahydro[1,3]thiazolo [5,4-c]pyridine]: the Ki is less than 1000 nM.

`CCOC(=O)c1cccc(-c2nc3c(s2)CN(CC(=O)N2CCN(C4CCC4)CC2)CC3)c1` [Compound 376, ethyl 3-{5-[2-(4-cyclobutylpiperazin-1-yl)-2-oxoethyl]-4,5,6,7-tetrahydro[1,3]thiazolo [5,4-c]pyridin-2-yl}benzoate]: the Ki was less than 1000 nM.

For `O=C(CN1CCc2nc(-c3cc(C(F)(F)F)ccc3Cl)sc2C1)N1CCN(C2CCC2)CC1` [Compound 374, 2-[2-chloro-5-(trifluoromethyl)phenyl]-5-[2-(4-cyclobutylpiperazin-1-yl)-2-oxoethyl]-4,5,6,7-tetrahydro[1,3]thiazolo [5,4-c]pyridine], the inhibition constant Ki is less than 1000 nM.

Turning to `CCOc1ccc(-c2nc3c(s2)CN(CC(=O)N2CCN(C4CCC4)CC2)CC3)cc1` [Compound 330, 5-[2-(4-cyclobutylpiperazin-1-yl)-2-oxoethyl]-2-(4-ethoxyphenyl)-4,5,6,7-tetrahydro[1,3]thiazolo [5,4-c]pyridine], the Ki is less than 1000 nM.
